Data as given in US5506359A, “Cocaine analogues and their use as cocaine drug therapies and therapeutic and imaging agents for neurodegenerative disorders” (priority 1993, dated 1996).
Where two headings read alike, the source gives them in different places.

Legend:
[1] = system: caudate-putamen / striatum cocaine receptors; assay: PET imaging with [^11 C]CFT
[2] = molecular target: T1, dopamine transporter ([^3 H]CFT binding sites, primate caudate-putamen) (Macaca fascicularis, UniProt Q9GJT6); assay: Inhibition of [^3 H]CFT binding in monkey caudate-putamen membranes (Table 2); parameters: species or system cynomolgus monkeys (Macaca fascicularis)
T1 construct: from tissue; host or cells: caudate-putamen membranes of cynomolgus monkey brain
T1 sequence (Q9GJT6 whole entry): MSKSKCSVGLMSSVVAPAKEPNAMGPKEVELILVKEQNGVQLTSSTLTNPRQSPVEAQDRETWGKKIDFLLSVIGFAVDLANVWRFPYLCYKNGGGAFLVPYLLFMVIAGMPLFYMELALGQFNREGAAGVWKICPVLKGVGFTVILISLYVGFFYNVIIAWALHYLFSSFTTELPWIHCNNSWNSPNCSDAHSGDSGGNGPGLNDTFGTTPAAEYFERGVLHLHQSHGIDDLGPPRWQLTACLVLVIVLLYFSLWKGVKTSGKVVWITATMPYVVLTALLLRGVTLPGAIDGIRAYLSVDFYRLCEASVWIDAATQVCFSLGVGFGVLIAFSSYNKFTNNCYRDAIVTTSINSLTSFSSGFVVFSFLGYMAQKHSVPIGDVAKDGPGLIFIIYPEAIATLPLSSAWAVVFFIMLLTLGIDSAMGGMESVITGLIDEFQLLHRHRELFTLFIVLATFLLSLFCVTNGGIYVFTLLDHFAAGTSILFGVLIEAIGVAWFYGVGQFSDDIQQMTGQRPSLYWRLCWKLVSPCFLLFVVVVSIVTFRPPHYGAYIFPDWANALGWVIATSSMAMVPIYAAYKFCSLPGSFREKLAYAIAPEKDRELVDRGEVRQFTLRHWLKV

[3] = molecular target: dopamine transporter, human caudate nucleus and putamen (Homo sapiens, UniProt Q01959); assay: [^3 H]CFT binding to homogenates of human caudate nucleus and putamen
dopamine transporter, human caudate nucleus and putamen, sequence (Q01959 whole entry): as the sequence (Q9GJT6 whole entry) above, with M24V, V137I, S194P, G198S, N200D, G201S, P202S counted along it
From the text: In order to determine whether [^3 H]CFT labels sites associated with the dopamine transporter, the binding of [^3 H]CFT to homogenates of human caudate nucleus and putamen, was characterized.

[4] = system: cocaine receptors in squirrel monkey brain; assay: Ex vivo autoradiography after intravenous administration; format: in vivo, squirrel monkeys
From the text: From the in vitro autoradiographic studies, two conclusions were drawn: (a) cocaine receptors labelled by [^3 H]CFT distributed primarily to dopamine-rich brain regions and (b) the highly circumscribed distribution and low level of non-specific binding of [^3 H]CFT further supported the development of CFT as a PET imaging ligand for cocaine receptors in vivo. However, as the distribution pattern of a probe in vitro may not necessarily reflect its distribution in vivo, it was necessary to determine whether similar conclusions could be drawn using ex vivo autoradiographic techniques. The ex vivo autoradiographic distribution of [^3 H]CFT was determined following intravenous administration of [^3 H]CFT (1.0 or 2.5 nmol/kg) to squirrel monkeys (FIG. 4B). Brain sections from several A-P levels were exposed to [^3 H]-sensitive film. […] Nevertheless, the ex vivo labeling of brain regions by [^3 H] CFT corresponded closely to the in vitro autoradiographic pattern.
(§1) At the time these studies were completed, a higher affinity iodinated analog of [^3 H]CFT, [^125 I]RTI-55 (i.e., CIT, 2β-carbomethoxy-3β-(4-iodophenyl)tropane; Dupont-NEN), became available. […] This ligand was also tested by ex vivo autoradiography as an imaging probe.

[5] = system: cocaine recognition sites in squirrel monkey brain; assay: In vitro autoradiography in squirrel monkey brain sections; format: binding
Procedure: To identify the distribution of cocaine recognition sites in the brain, autoradiographic techniques were utilized. Such techniques were particularly appropriate for this purpose because they are 100-1,000 times more sensitive than radioreceptor assays conducted in tissue homogenates. […] Three sequential procedures: parametric studies, in vitro autoradiographic techniques, and ex vivo autoradiographic techniques were conducted in tissue sections of squirrel monkey brains.
After establishing suitable conditions for autoradiography, systematic mapping of cocaine recognition sites were conducted in squirrel monkey brain at nine anterior-posterior levels. Tissue sections were incubated alone, or in the presence of excess (-)-cocaine to determine total and nonspecific binding of [^3 H]CFT, respectively.

[6] = molecular target: T2, cocaine recognition sites in monkey caudate-putamen (Macaca fascicularis, UniProt Q9GJT6); details: cited from earlier work
T2 construct: All studies were conducted in monkey brain caudate-putamen; from tissue; host or cells: monkey brain caudate-putamen homogenates
T2 sequence (Q9GJT6 whole entry): as the sequence (Q9GJT6 whole entry) above

[7] = system: cocaine binding sites associated with the dopamine transporter; assay: Binding in postmortem Parkinson's diseased putamen / caudate-putamen; parameters: species or system human; details: tissue homogenates (FIG. 3) or tissue sections
[8] = molecular target: T2, cocaine recognition sites in monkey caudate-putamen; assay: [^3 H]CFT and [^3 H]cocaine binding in tissue homogenates of monkey caudate-putamen
Procedure: All studies were conducted in monkey brain caudate-putamen for two reasons. […] Second, primates are consistently used to test diagnostic imaging agents and to test for cocaine-like drugs and drug therapies for Parkinson's disease.

[9] = system: [^3 H]CFT binding sites in monkey caudate-putamen; details: cited from earlier work; for number of binding components: competition curves; for steepness of competition curve: displacement of [^3 H]CFT
serotonin transporter = details: cited from earlier work
[10] = system: sites in the caudate putamen; assay: [^125 I]RTI-55 labeling of sites in caudate putamen; format: binding
Procedure: as §1

[11] = [^3 H]CFT 1.0 or 2.5 nmol/kg i.v.
[12] = human caudate nucleus and putamen homogenates

In the case of COC(=O)[C@H]1[C@@H](c2ccc(F)cc2)C[C@@H]2CC[C@H]1N2C [[^11 C]CFT, 2β-carbomethoxy-3β-(4-fluorophenyl)tropane], the striatal-to-cerebellar ratio ([1]; 58 min) is reported as over 4.0, the “CFT binding in MPTP-treated Parkinsonian monkeys” value ([1]; MPTP-treated Parkinsonian) is reported as “reduced” and the uptake in caudate-putamen ([1]; PET, 90 min imaging) is reported as “high uptake”. For the same compound, the “CFT binding in asymptomatic monkeys” value ([1]; asymptomatic) was “depletion was found”.

In the case of CCC[CH2][Sn]([CH2]CCC)([CH2]CCC)[c]1cccc([C@H]2C[C@@H]3CC[C@H]([C@H]2C(=O)OC)N3C)c1 [4'f, 2β-Carbomethoxy-3β-(3-tributylstannylphenyl)tropane], the IC50 [2] is reported as 1.08 ± 0.165 µM.

In the case of COC(=O)[C@H]1[C@@H](c2ccccc2)C[C@@H]2CC[C@H]1N2C [4'g (WIN 35, 065-2)], the IC50 ([2]; read-out: IC50) is reported as 0.065 ± 0.012 µM.

With OC1(c2ccc(Cl)cc2)c2ccccc2C2=NCCN21 (stereo not shown) [mazindol] the “displacement of bound [^11 C]CFT from striatum” value ([1]; cynomolgus monkey, in vivo) was “displaced bound [^11 C]CFT from the striatum” and the “rank order of potency for inhibiting [^3 H]CFT binding” value (“rank order of potency for inhibiting” below) [3] was “Lu 19-005>CFT, mazindol, GBR 12909>(-)-cocaine>bupropion>(+)-cocaine”.

In the case of COC(=O)[C@H]1[C@@H](c2ccc(F)cc2)C[C@@H]2CC[C@H]1N2C [[^3 H]CFT, 2β-carbomethoxy-3β-(4-fluorophenyl)tropane], the “ex vivo binding compared with in vitro, cortex and thalamus” value [4, 11] is reported as “more prominent binding in vivo than in vitro”, the “ex vivo distribution of binding” value [4, 11] is reported as “caudate, putaman>nucleus accumbens/olfactory tubercla, stria terminalis>substantia nigra>hypothalamus” and the “density of [^3 H]CFT binding” value ([5]; bed nucleus of stria terminalis, ventral tegmental area, medial preoptic area, pineal, hippocampus, thalamic central nuclei) is reported as “Low, though measurable, levels”. For the same compound, the “specific binding as % of total binding” value ([5]; caudate nucleus, putamen, nucleus accumbens, olfactory tubercle) was over 90%, the “density of [^3 H]CFT binding” value ([5]; dopamine-rich regions: caudate nucleus, putamen, nucleus accumbens, olfactory tubercle) was “High densities” and the “density of [^3 H]CFT binding” value ([5]; substantia nigra, zona incerta, amygdala, hypothalamus) was “Intermediate densities”. For the same compound, the “density of [^3 H]CFT binding” value ([5]; white matter, cerebellum, globus pallidus, cortical regions) was “Near background levels”, the “stereoselective inhibition of binding” value ([6]; by enantiomers of cocaine and pseudococaine and diastereoisomers of WIN 35,065-2) was “inhibited stereoselectively” and the “NaCl requirement for specific binding” value [6] was “NaCl was necessary for specific binding”. For the same compound, the “dissociation rate versus [^3 H]cocaine” value [6] was “considerably slower”, the “non-specific binding versus [^3 H]cocaine” value [6] was “lower than that of [^3 H]cocaine” and the “high-affinity component of total number of sites” value ([6]; high- and low-affinity binding components) was “approximately 10%”. For the same compound, the “Bmax (density of binding sites)” value ([6]; monkey caudate-putamen homogenates) was 388 pmol/g, the Kd ([6]; read-out: K0.50, affinity, monkey caudate-putamen) was 0.016 µM and the “character of [^3 H]CFT binding” value [3, 12] was “saturable, stereoselective”. For the same compound, the “[^3 H]CFT binding sites in postmortem human Parkinson's diseased caudate-putamen” value [7] was “severely depleted” and the “affinity relative to [^3 H]cocaine” value [8] was 18 times.

In the case of CNC1CC(c2ccc(Cl)c(Cl)c2)c2ccccc21 (stereo not shown) [Lu 19-005], the “number of binding components” value [9] is listed as “a single binding component” and the “steepness of competition curve” value [9] is listed as 0.94-1.1.

In the case of COC(=O)[C@@H]1[C@H](OC(=O)c2ccccc2)C[C@H]2CC[C@@H]1N2C [(+)-cocaine], the “rank order of potency for inhibiting” value [3, 12] is reported as “Lu 19-005>CFT, mazindol, GBR 12909>(-)-cocaine>bupropion>(+)-cocaine”.

For COC(=O)[C@H]1[C@@H](c2cccc(Br)c2)C[C@@H]2CC[C@H]1N2C [4'd (3-CBT), 2β-Carbomethoxy-3β-(3-bromophenyl)tropane], the IC50 [2] was 0.00793 ± 7.7e-05 µM.

In the case of COC(=O)[C@H]1[C@@H](OC(=O)c2ccccc2)C[C@@H]2CC[C@H]1N2C [(-)-cocaine], the “extent of displacement of [^3 H]CFT” value [9] is given as “full displacement of [^3 H]CFT”, the “number of binding components” value [9] is given as “at least two binding components” and the “steepness of competition curve” value [9] is given as 0.61-0.89. The “rank order of potency for inhibiting” value [3, 12] was “Lu 19-005>CFT, mazindol, GBR 12909>(-)-cocaine>bupropion>(+)-cocaine”.

For CC(NC(C)(C)C)C(=O)c1cccc(Cl)c1 (stereo not shown) [bupropion], the “number of binding components” value [9] is given as “a single binding component”, the “steepness of competition curve” value [9] is given as 0.94-1.1 and the “rank order of potency for inhibiting” value [3] is given as “Lu 19-005>CFT, mazindol, GBR 12909>(-)-cocaine>bupropion>(+)-cocaine”.

With COC(=O)[C@H]1[C@@H](c2cccc(I)c2)C[C@@H]2CC[C@H]1N2C [4'e (3-CIT), 2β-Carbomethoxy-3β-(3-iodophenyl)tropane] the IC50 [2] was 0.0278 ± 0.00305 µM.

In the case of COC(=O)[C@H]1[C@@H](c2ccc(I)cc2)C[C@@H]2CC[C@H]1N2C [[^125 I]RTI-55, 2β-carbomethoxy-3β-(4-iodophenyl)tropane], the additional sites labeled (serotonin transporter) is given as “associated with the serotonin transporter”, the “potency of labeling caudate putamen sites relative to [^3 H]CFT” value [10] is given as “approximately 10 fold” and the ex vivo density ([4]; caudate-putamen) is given as “highest densities”. For the same compound, the ex vivo density ([4]; thalamus, cortex and brain stem nuclei) was “moderately high densities”.

For COC(=O)[C@H]1[C@@H](OC(=O)c2ccccc2)C[C@@H]2CC[C@H]1N2 [(-)-norcocaine], the “extent of displacement of [^3 H]CFT” value [9] is given as “full displacement of [^3 H]CFT”, the “number of binding components” value [9] is given as “at least two binding components” and the “steepness of competition curve” value [9] is given as 0.61-0.89.

COC(=O)[C@H]1[C@@H](c2ccc(Cl)cc2)C[C@@H]2CC[C@H]1N2C [4'b (CCT), 2β-Carbomethoxy-3β-(4-chlorophenyl)tropane] showed an IC50 [2] of 0.0014 ± 3.5e-05 µM.

With COC(=O)[C@H]1[C@@H](c2ccc(I)cc2)C[C@@H]2CC[C@H]1N2C [4'h (RTI-55), 2β-carbomethoxy-3β-(4-iodophenyl)tropane] the IC50 [2] was 0.00108 ± 6e-05 µM.

In the case of Fc1ccc(C(OCCN2CCN(CCCc3ccccc3)CC2)c2ccc(F)cc2)cc1 [GBR 12909], the “number of binding components” value [9] is given as “a single binding component”, the “steepness of competition curve” value [9] is given as 0.94-1.1 and the “rank order of potency for inhibiting” value [3] is given as “Lu 19-005>CFT, mazindol, GBR 12909>(-)-cocaine>bupropion>(+)-cocaine”.
